For data set [1] the following is noted: cited from earlier work.
The nature of data set [2]: Aqueous solubility: concentration limit of apparently clear solution ([C]max) by visual observation. Format: physicochemical. As to conditions: for solubility at 30 min: deionized water. The method, then: (§1) For each molecule, several samples in 1–2 mL deionized water with various concentrations (between 0.01 mM and 100 mM) were prepared by homogenizing at 500 rpm with a standard magnetic hotplate stirrer MR 3001K (Heidolph Instruments, Schwabach, Germany) for 30 min. The soluble or insoluble character was estimated on the aspect change of corresponding dispersion systems. The concentration limit to obtain an apparently clear solution was noted [C]max. […] This allows the examination of the temperature-driven solubilization behavior and verifies the presence of the Krafft point (Tk), above which the surfactant solubility in water increases abruptly. At Tk, solubility of the surfactant reaches its critical micelle concentration (CMC). In other words, Tk represents the critical temperature at which the micellization process occurs with the dissolution of hydrated surfactant crystals. Thus, Tk can be precisely determined by differential scanning calorimetry (DSC), which has already been proposed by some authors. All of the measurements were performed with a commercial µDSC7 evo calorimeter (SETARAM Instrumentation, Caluire, France). For each molecule, a sample with a concentrated aqueous mixture of 10% (w/w) molecule (C >> CMC) was prepared at 50 °C under magnetic agitation for 30 min to obtain a homogeneous and clear dispersion. These dispersions were then put into a refrigerator at 4 °C for a period over a week, permitting potential phase transitions, including the formation of equilibrated hydrated crystals. Samples of about 300 mg were introduced in the calorimeter cell and equilibrated at 4 °C for 1 h. A heating scan from 4 °C to 65 °C at a rate of 0.5 °C/min was then performed. Tk were identified as the onset of the endothermic signal detected by DSC during the dissolution of hydrated crystals. Tk were calculated as an average of at least two measurements.

Data set [3] can be described thus: Equilibrium surface tension at the air-aqueous solution interface (Wilhelmy plate). Format: physicochemical. The settings on record: water; for Amin (minimal area per molecule at air-aqueous solution interface): calculated from Gibbs equation. Here is the method:
The surface activity of the synthesized molecules was studied mainly in terms of their adsorption behavior on the air-aqueous solution interface. The equilibrium surface tensions γ were measured by means of a Wilhelmy plate using a K100 Processor Tensiometer (KRUSS, Hamburg, Germany). The equilibrium surface tension γ was plotted as a function of the log concentration for all molecules, from which we can derive various parameters, like critical micellar concentration (CMC) extrapolated from the break in the surface tension curve and surface tension at the CMC (γcmc). The surface excess (Γmax) and minimal area per molecule at air-aqueous solution interface (Amin) can be calculated from Gibbs equation for non-ionic surfactants: (2) Гmax=−1/2.303RT(dγ/dlogc) and (3) Amin=10^20/NAГmax where R is the ideal gas constant (8.31 J·mol^−1K^−1)’ T is the measuring temperature (K); γ is the surface tension (N·m^−1), c is the concentration (mol·L^−1); Amin is the minimal area per molecule (Å^2); and NA is Avogadro′s number (6.02 × 10^23 mol^−1).
For each molecule, a series of solutions of different concentrations were prepared well above its Krafft Point, either at room temperature of about 25 °C or at 50 °C, under agitation in a water bath for 30 min. Measurements were carried out for each concentration, either at 25 °C for molecules with a Tk below room temperature, or at T > Tk for those with higher Tk values than 25 °C. The standard deviation for temperature is 1 °C.

Data set [4] in a line: Krafft temperature (Tk) by differential scanning calorimetry. As to conditions: DSC, aqueous mixture 10% (w/w), heating scan 4 °C to 65 °C, onset of endothermic signal. It counts as physicochemical. The method, then:
as §1
On the technique in general: DSC measures the heat that a sample takes up or gives off during a temperature scan.

The mark [5] stands for this setting: room temperature of about 25 °C, visual observation.

≈ marks a conversion by molar mass, not a printed value. Where “and” joins values, the source holds several entries; their conditions need not be identical. Equal entries are not always repeated. Entries after “also recorded” stand apart in the source; their conditions may differ. Where two headings read alike, the source gives them in different places.

With “polyethylene glycol tert-octylphenyl ether [Triton X-100]”, the CMC in data set [1] was 0.23 to 0.24 mM.
Consider “polyoxyethylene sorbitan monolaurate [Tween 20]”, for which the CMC in data set [1] is 0.050 to 0.059 mM.
In general, solubility refers to how much of the substance goes into solution per volume. `CCCCCCCCOC(=O)C1OC(OC)C(O)C(O)C1O` [compound 7, Octyl (methyl α-D-mannopyranosid)uronate]: in data set [2] (setting [5]), the solubility at 30 min is at least 5000 µM. In data set [2] (water, 25 °C (Table 2)), the “[C]max” value was 5.0 to 6.2 mM. In data set [3] (25 °C), the CMC was 5.5 ± 0.5 mM, the “γcmc (surface tension at the CMC)” value was determined as 28.3 ± 0.3 mN·m^−1 and the “Amin (minimal area per molecule at air-aqueous solution interface)” value was 42.8 ± 2 Å^2/molecule. In data set [4], the “Tk (Krafft Temperature)” value was “no signal; also recorded: undetected”.
For the compound “polyoxyethylene (23) lauryl ether [Brij 35]”, the CMC in data set [1] is 0.03 to 0.09 mM.
For `CCCCCCCCOC(=O)[C@H]1O[C@H](OC)[C@H](O)[C@@H](O)[C@@H]1O` [3d, Octyl (methyl α-D-glucopyranosid)uronate], the solubility at 30 min in data set [2] (setting [5]) was at least 20000 µM. For the same compound, in data set [2] (water, 25 °C (Table 2)), the “[C]max” value lay in the range of 15 to 20 mM. Moreover, in data set [3] (25 °C), the CMC turned out to be 6.0 ± 0.5 mM, the “γcmc (surface tension at the CMC)” value is recorded as 29.2 ± 0.4 mN·m^−1 and the “Amin (minimal area per molecule at air-aqueous solution interface)” value was 41.0 ± 1 Å^2/molecule. In data set [4], the “Tk (Krafft Temperature)” value is “no signal; also recorded: undetected”.
Regarding `CCCCCCCCOC(=O)[C@H]1O[C@@H](OC)[C@H](O)[C@@H](O)[C@H]1O` [compound 5, Octyl (methyl β-D-galactopyranosid)uronate], the “[C]max” value in data set [2] (water, 40 °C (Table 2)) is listed as over 100 mM. The “[C]max at T > Tk” value in data set [2] (water, above Krafft temperature (31 °C)) is over 100 mM. The “[C]max at ≈25 °C (concentration limit of apparently clear solution)” value in data set [2] (water, room temperature of about 25 °C, visual observation) is “insoluble”. Further, in data set [3] (40 °C), the CMC came to 6.9 ± 0.4 mM; the “γcmc (surface tension at the CMC)” value is 29.4 ± 0.36 mN·m^−1 and 29.4 ± 0.4 mN·m^−1; the “Amin (minimal area per molecule at air-aqueous solution interface)” value is 42.9 ± 3.9 Å^2/molecule. Moreover, the “Tk (Krafft Temperature)” value in data set [4] came out at 31 ± 0.9 °C.
For the compound `CCCCCCOC(=O)[C@H]1O[C@H](OC)[C@H](O)[C@@H](O)[C@@H]1O` [3c, Hexyl (methyl α-D-glucopyranosid)uronate], the solubility at 30 min in data set [2] (setting [5]) was at least 50000 µM. Also, the “[C]max” value in data set [2] (water, 25 °C (Table 2)) fell in the range of 50 to 60 mM. Besides, in data set [3] (25 °C), the CMC is on record as 55 ± 5 mM, the “γcmc (surface tension at the CMC)” value amounted to 30.8 ± 0.8 mN·m^−1 and the “Amin (minimal area per molecule at air-aqueous solution interface)” value is listed as 39.2 ± 2.9 Å^2/molecule. For the same compound, the “Tk (Krafft Temperature)” value in data set [4] is reported as “undetected”.
As to `CCCCCCCCCCCCOC(=O)[C@H]1O[C@H](OC)[C@H](O)[C@@H](O)[C@@H]1O` [3f, Dodecyl (methyl α-D-glucopyranosid)uronate], the solubility at 30 min in data set [2] (setting [5]) was at least 30 µM. For the same compound, in data set [2] (water, 25 °C (Table 2)), the “[C]max” value lay within 0.03 to 0.05 mM. Moreover, in data set [3] (25 °C), the CMC is given as 0.056 ± 0.004 mM, the “γcmc (surface tension at the CMC)” value is on record as 28.3 ± 0.3 mN·m^−1 and the “Amin (minimal area per molecule at air-aqueous solution interface)” value is 45.6 ± 5 Å^2/molecule. In addition, the “Tk (Krafft Temperature)” value in data set [4] was 22 ± 0.2 °C.
Take `CCCCCCCCCCOC(=O)[C@H]1O[C@H](OC)[C@H](O)[C@@H](O)[C@@H]1O` [3e, Decyl (methyl α-D-glucopyranosid)uronate]: the solubility at 30 min in data set [2] (setting [5]) was in the range of 500 to 750 µM (≈ 174 to 261 µg/mL). Moreover, the “[C]max” value in data set [2] (water, 25 °C (Table 2)) lay within 0.5 to 0.75 mM. In addition, in data set [3] (25 °C), the CMC is given as 0.65 ± 0.05 mM, the “γcmc (surface tension at the CMC)” value came to 28.1 ± 0.1 mN·m^−1 and the “Amin (minimal area per molecule at air-aqueous solution interface)” value is recorded as 42.4 ± 2 Å^2/molecule. The “Tk (Krafft Temperature)” value in data set [4] is on record as “undetected”.
